Test results from patent US20240018146A1, “COMPOSITIONS AND METHODS OF USING THE SAME FOR TREATMENT OF NEURODEGENERATIVE AND MITOCHONDRIAL DISEASE” (MITOKININ, INC., priority 2020, published 2024).
Like-named read-outs stand apart in the source and are kept apart here.

Tests used:
Assay type in all cases: cell-based
[1] = system: HeLa MKYP cells; assay: Human mitophagy assay (HeLa mKeima assay, FACS)
How it was run: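 HeLa cells carrying the pH-sensitive mtKeima tag incubated 16 h with compound at several concentrations, then 1 uM FCCP/oligomycin for 6 h. FACS detects mitochondria in lysosomes through the Keima emission shift, quantified as percentage of cells in mitophagy.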

[2] = Mitotoxicity / Mitotox safety margin (therapeutic window)
[3] = system: HeLa MKYP cells; assay: Cell death measured by DAPI staining, with 1 μM FCCP/oligomycin or no toxin (no FO)
How it was run: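 HeLa MKYP cells were treated with compounds alongside 1 μM FCCP/oligomycin or no toxin for 6 or 6.5 h. Cell death was scored by DAPI staining, with H2O2 treatment as the death control.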

[4] = system: pS129 α-syn; assay: Preformed fibril (PFF) model in primary neuron culture, pS129 α-syn; conditions: increasing doses
Description: 4. Preformed Fibril Model
Mouse and human alpha-synuclein monomers have been sourced commercially, then pre-formed fibrils have been generated as per the detailed protocol provided by the MJFF. For in vitro experiments primary hippocampal neurons isolated from P0 pups were grown for 7 days after which PFFs at 5 ug/ml were introduced Pre-formed fibrils will be introduced via stereotactic injection into the striatum of wt (C57BL/6J, Jax #000664) and transgenic A53T mice (B6;C3-Tg(Prnp-SNCA*A53T)83Vle/J, Jax #004479). Cohorts of drug-treated (oral gavage) and untreated animals will then be allowed to age for up to 6 months, at which point they will be sacrificed and perfused. Brains will be removed and fixed, then sectioned for analysis. We anticipate that untreated A53T animals will show significant spreading of aggregated alpha-synuclein pathology and pS129 staining, as well as some possible neurodegeneration; wt animals are also expected to show pS129 synuclein staining and synuclein aggregation, albeit less than that seen in the A53T background.

[5] = Homo sapiens, HeLa, read-out: Mitophagy induction EC50
[6] = read-out: Mitophagy induction EC50

SMILES	EC50 [1, 5]	Mito-Safety Index (highest safe dose/EC50) [2]	Highest safe dose (μM) (mitotox or cytotox) [2]	Highest safe dose (cytotoxicity; no FO; safe means DAPI+ <20%) ([3]; no FO)	Max % death with 1 μM FO [3]	pS129 α-syn (250-12) in primary neuron culture [4]	pS129 α-syn (monomer) in primary neuron culture [4]	pS129 α-syn in primary neuron culture [4]	EC50 [1, 6]	EC50 ([1]; Homo sapiens, HeLa, HeLa mKeima assay, read-out: Mitophagy EC50 (HeLa mKeima assay))	Max cell death at 25 μM compound, 1 uM FO (%) ([3]; 25 μM compound, 1 uM FO)	Cell death at 25 μM (no FO) (%) ([3]; 25 μM compound, no FO)
C[C@@H]1CN([C@@H]2COc3cc(F)ccc3[C@H]2Nc2ncnc3[nH]c(C(F)(F)F)cc23)CCO1 [EP-0041088]	120 nM	128.93	15.7 µM	25.0 µM	16.2%	reduces	reduces	reduces				
Fc1ccc2c(c1)CC[C@H](N1C[C@H]3COC[C@@H]3C1)[C@H]2Nc1ncnc2[nH]c(C3CC3)cc12 [EP-0040395]	210 nM	56.09	11.7 µM	25.0 µM	8.1%							
C[C@@H]1CN([C@@H]2COc3cc(F)ccc3[C@H]2Nc2ncnc3[nH]c(C(F)(F)F)cc23)C[C@H](C)O1 [EP-0040947]	20 nM	98.61	2.2 µM	25.0 µM	16.6%							
C[C@@H]1CN([C@H]2COc3cc(F)ccc3[C@@H]2Nc2ncnc3[nH]c(C(F)(F)F)cc23)C[C@H](C)O1 (single isomer, unassigned) [EP-0040773]	130 nM	77.04	9.9 µM	25.0 µM	27.3%							
COC1CN([C@H]2COc3ccccc3[C@@H]2Nc2ncnc3[nH]c(C4CC4)cc23)C1 [EP-0040847]			25.0 µM	25.0 µM	5.2%				> 25000 nM			
C[C@@H]1CN([C@H]2CCc3ccccc3[C@@H]2Nc2ncnc3[nH]c(C4CC4)cc23)CCO1 (single isomer, unassigned) [EP-0040496]	20 nM	82.87	1.3 µM	25.0 µM	15.6%							
Fc1ccc2c(c1)OC[C@H](N1C[C@@H]3COC[C@H]3C1)[C@H]2Nc1ncnc2[nH]c(C3CC3)cc12 (single isomer, unassigned) [EP-0040644]		72.77	25.0 µM	25.0 µM	8.1%				340 nM			
c1ccc2c(c1)OC[C@@H](C1CCOCC1)[C@@H]2Nc1ncnc2[nH]c(C3CC3)cc12 [EP-0040729]	60 nM	52.06	3.2 µM	25.0 µM	17.1%							
Fc1cccc2c1CC[C@@H](N1C[C@H]3COC[C@H]3C1)[C@@H]2Nc1ncnc2[nH]c(C(F)(F)F)cc12 (single isomer, unassigned) [EP-0040506]	50 nM	44.10	2.2 µM	25.0 µM	41.0%							
c1ccc2c(c1)OCC(N1CC3CCOC3C1)C2Nc1ncnc2[nH]c(C3CC3)cc12 (single isomer, unassigned) [EP-0041670]				25.0 µM	5.4%	reduces	reduces	reduces	460 nM			
c1ccc2c(c1)CC[C@H](C1CCOCC1)[C@H]2Nc1ncnc2[nH]c(C3CC3)cc12 [EP-0040726]	20 nM	100.89	2.1 µM	25.0 µM	20.5%							
CO[C@H]1CCN([C@H]2COc3ccccc3[C@@H]2Nc2ncnc3[nH]c(C4CC4)cc23)C1 [EP-0041517]	30 nM	34.73	1.1 µM	25.0 µM	4.8%							
C[C@H]1CN([C@H]2COc3ccccc3[C@@H]2Nc2ncnc3[nH]c(C4CC4)cc23)CCO1 [EP-0040999]	140 nM	105.78	15.1 µM	25.0 µM	12.1%							
CN(c1ncnc2[nH]c(C3CC3)cc12)C1c2ccccc2CCC1N1C[C@H]2COC[C@H]2C1 (stereo partly shown) [EP-0039743]	4170 nM	5.99	25.0 µM	25.0 µM	28.2%					3880 nM	33.7%	11.6%
Fc1ccc2c(c1)CC[C@H](N1C[C@H]3COC[C@@H]3C1)[C@H]2Nc1ncnc2[nH]c(C(F)(F)F)cc12 [EP-0040695]	100 nM	89.34	9.1 µM	25.0 µM	20.7%							
C[C@@H]1CN([C@@H]2COc3ccccc3[C@H]2Nc2ncnc3[nH]c(C(F)(F)F)cc23)C[C@H](C)O1 [EP-0040943]	50 nM	47.50	2.3 µM	25.0 µM	20.9%							
C[C@@H]1CN([C@H]2COc3ccccc3[C@@H]2Nc2ncnc3[nH]c(C(F)(F)F)cc23)C[C@H](C)O1 (single isomer, unassigned) [EP-0040749]	150 nM	48.24	7.1 µM	25.0 µM	34.3%							
c1ccc2c(c1)CC[C@@H](N1CCOCC1)[C@@H]2Nc1ncnc2[nH]c(C3CC3)cc12 (single isomer, unassigned) [EP-0040109]	24800 nM	1.01	25.0 µM	25.0 µM	7.9%							
c1ccc2c(c1)OCC(N1CC3CCOC3C1)C2Nc1ncnc2[nH]c(C3CC3)cc12 (single isomer, unassigned) [EP-0041668]				25.0 µM	8.0%	reduces	reduces	reduces	140 nM			
Fc1cccc2c1CC[C@@H](N1C[C@H]3COC[C@H]3C1)[C@@H]2Nc1ncnc2[nH]c(C3CC3)cc12 (single isomer, unassigned) [EP-0040577]	20 nM	86.01	1.3 µM	25.0 µM	28.6%							
C[C@@H]1CN([C@@H]2COc3ccccc3[C@H]2Nc2ncnc3[nH]c(C4CC4)cc23)C[C@H](C)O1 [EP-0040945]	40 nM	27.95	1.2 µM	25.0 µM	18.4%							
COC1CN([C@H]2COc3ccccc3[C@@H]2Nc2ncnc3[nH]c(C4CC4)cc23)C1 [EP-0040702]		77.26	25.0 µM	25.0 µM	7.7%				320 nM			
FC(F)(F)c1cc2c(N[C@H]3c4ccccc4CC[C@@H]3C3CCOCC3)ncnc2[nH]1 (single isomer, unassigned) [EP-0040580]	80 nM	68.72	5.5 µM	25.0 µM	17.1%							
Fc1ccc2c(c1)CC[C@@H](N1C[C@H]3COC[C@H]3C1)[C@@H]2Nc1ncnc2[nH]c(C(F)(F)F)cc12 (single isomer, unassigned) [EP-0040721]	180 nM	46.94	8.3 µM	8.3 µM	36.3%							
